Measured values published in ChEMBL document CHEMBL2311320, “A-ring modification of SCH 900229 and related chromene sulfone γ-secretase inhibitors” (Bioorg Med Chem Lett, 2013).

Tests used:
Format in all cases: cell-based, Homo sapiens
Gamma-secretase [1] = test: Inhibition of gamma-secretase (unknown origin) expressed in HEK293 cell membrane co-expressing […] mutant assessed as reduction of amyloid beta-40 production
Gamma-secretase [2] = test: Inhibition of gamma-secretase (unknown origin) expressed in HEK293 cells co-expressing […] mutant assessed as reduction of amyloid beta-42 production
Gamma-secretase [3] = test: Inhibition of gamma-secretase (unknown origin) expressed in HEK293 cells co-expressing […] mutant assessed as reduction of amyloid beta-40 production

IC50 (Gamma-secretase [1])	IC50 (Gamma-secretase [2])	IC50 (Gamma-secretase [3])	Compound
3.5 nM	31 nM	110 nM	CC[C@@H]1C[C@@H]2[C@@H](CC[C@@]3(S(=O)(=O)c4ccc(C#N)cc4)C4=C(OC[C@@H]23)C(F)(F)C=CC4=O)NS1(=O)=O
4.7 nM	2 nM	4 nM	CC[C@@H]1C[C@@H]2[C@@H](CC[C@@]3(S(=O)(=O)c4ccc(C#N)cc4)c4c(F)ccc(F)c4OC[C@@H]23)NS1(=O)=O
21 nM	410 nM	1600 nM	CS(=O)(=O)CC[C@@H]1OCC[C@@]2(S(=O)(=O)c3ccc(C#N)cc3)C3=C(OC[C@@H]12)C(F)(F)C=CC3=O
78 nM	200 nM	330 nM	O=C1C=CC(F)(F)C2=C1[C@]1(S(=O)(=O)c3ccc(C(F)(F)F)cc3)CCC[C@@H](CNS(=O)(=O)C(F)(F)F)[C@@H]1CO2
1.9 nM	49 nM	130 nM	CS(=O)(=O)CC[C@@H]1CCC[C@@]2(S(=O)(=O)c3ccc(C(F)(F)F)cc3)C3=C(OC[C@@H]12)C(F)(F)C=CC3=O
66 nM	9 nM	25 nM	CS(=O)(=O)CC[C@@H]1OCC[C@@]2(S(=O)(=O)c3ccc(C#N)cc3)c3c(F)ccc(F)c3OC[C@@H]12
1.2 nM	11 nM	26 nM	CS(=O)(=O)CC[C@@H]1OCC[C@@]2(S(=O)(=O)c3ccc(Cl)cc3)C3=C(OC[C@@H]12)C(F)(F)C=CC3=O
6.8 nM	110 nM	280 nM	O=C1C=CC(F)(F)C2=C1[C@]1(S(=O)(=O)c3ccc(C(F)(F)F)cc3)CC[C@@H](NS(=O)(=O)C3CC3)C[C@@H]1CO2
54 nM	32 nM	73 nM	O=S(=O)(NC[C@@H]1CCC[C@@]2(S(=O)(=O)c3ccc(C(F)(F)F)cc3)c3c(F)ccc(F)c3OC[C@@H]12)C(F)(F)F
92 nM	19 nM	6.8 nM	O=S(=O)(NC[C@@H]1CC[C@@]2(S(=O)(=O)c3ccc(C(F)(F)F)cc3)c3c(F)ccc(F)c3OC[C@H]2C1)C1CC1
1.9 nM	2 nM	5 nM	CC[C@@H]1C[C@@H]2[C@@H](CC[C@@]3(S(=O)(=O)c4ccc(C(F)(F)F)cc4)c4c(F)ccc(F)c4OC[C@@H]23)NS1(=O)=O
15 nM	4 nM	11 nM	CS(=O)(=O)CC[C@@H]1OCC[C@@]2(S(=O)(=O)c3ccc(C(F)(F)F)cc3)c3c(F)ccc(F)c3OC[C@@H]12
1.3 nM	1 nM	4 nM	CS(=O)(=O)CC[C@@H]1OCC[C@@]2(S(=O)(=O)c3ccc(Cl)cc3)c3c(F)ccc(F)c3OC[C@@H]12
1.8 nM	27 nM	56 nM	CS(=O)(=O)CC[C@@H]1OCC[C@@]2(S(=O)(=O)c3ccc(C(F)(F)F)cc3)C3=C(OC[C@@H]12)C(F)(F)C=CC3=O
43 nM	21 nM	63 nM	CS(=O)(=O)CC[C@@H]1CCC[C@@]2(S(=O)(=O)c3ccc(C(F)(F)F)cc3)c3c(F)ccc(F)c3OC[C@@H]12
3.9 nM	25 nM	46 nM	CC[C@@H]1C[C@@H]2[C@@H](CC[C@@]3(S(=O)(=O)c4ccc(C(F)(F)F)cc4)C4=C(OC[C@@H]23)C(F)(F)C=CC4=O)NS1(=O)=O
